# What was measured:
# [1] = test system: A375, SW620, LOVO and HCT116 xenografts; assay: Tumor xenografts in nude mice, tumor growth; format: in vivo; settings: single administration
# Description: Six-week-old female athymic NU/NU nude mice were injected subcutaneously with 5×10^5 of A375, SW620, LOVO, and HCT116 in […] culture media/Matrigel at a 1:5 ratio. For cell-line-derived xenografts, animals were randomized at a tumor volume of 70 to 120 mm^3 to four to six groups, with n=8-10 tumors per group. […] Xenografts were measured with digital caliper, and tumor volumes were determined with the formula: […]. Animals were euthanized using CO2 inhalation. Tumor volumes are plotted as means±SEM. Mice were housed in air-filtered laminar flow cabinets with a 12-hr light/dark cycle and food and water ad libitum. […]
# [2] = test system: B16F10 melanoma lung metastases
# Description: A luciferase-expressing B16F10 melanoma lung metastasis model was used. The cells were injected into the tail vein at day 0. The FiDOX particles and controls were injected at day 7. The progression of metastasis was monitored with bioluminescence imaging after injection of luciferin. The bioluminescence images show the luciferase-expressing B16F10 cancer cells after injection of D-luciferin, 21 days after inoculation and 14 days after a single treatment.
# FIG. 8 is a plot showing laboratory mouse survival curve data in the B16F10 melanoma lung metastasis model treated with a single injection of FiDOX nanoparticles, injected on day 7.
# C57BL/6 mice were inoculated intravenously (i.v.) with 1×10^5B16-F10 cells on day 0 and the tumor was allowed to establish until day 7. In one experiment, mice were divided randomly into 5 groups and injected i.v. with FiDOX, Fi, DexDOX.
# After treatment, mice were monitored up to 8 or 17 weeks, depending on the treatment received. At the end of the experiments, mice were sacrificed, their lungs were collected, and the number of surface-visible tumors was examined. The Kaplan-Meier method was used to evaluate survival.
# The anti-tumor efficacy of P-selectin-targeted drug carrier nanoparticles was assessed against an aggressive experimental metastasis model. […]
smiles,measurement,setting,value
"Cn1cnc2c(F)c(Nc3ccc(Br)cc3F)c(C(=O)NOCCO)cc21 [MEK162, 6-(4-bromo-2-fluoroanilino)-7-fluoro-N-(2-hydroxyethoxy)-3-methylbenzimidazole-5-carboxamide]",tumor growth inhibition,[1],no effect
"COc1cccc2c1C(=O)c1c(O)c3c(c(O)c1C2=O)C[C@@](O)(C(=O)CO)C[C@@H]3O[C@H]1C[C@H](N)[C@H](O)[C@H](C)O1 [doxorubicin, (7S,9S)-7-[(2R,4S,5S,6S)-4-amino-5-hydroxy-6-methyloxan-2-yl]oxy-6,9,11-trihydroxy-9-(2-hydroxyacetyl)-4-methoxy-8,10-dihydro-7H-tetracene-5,12-dione]",survival,[2]; single injection on day 7,did not have a significant effect
same,tumor burden,"[2]; single injection, bioluminescence",did not have a significant effect
